# Assay results: article PMC5429698, “Biochemical analysis of leishmanial and human GDP-Mannose Pyrophosphorylases and selection of inhibitors as new leads” (Scientific Reports, 2017)
# “And” between values parts separate entries of the source, which are not always exact repeats. Equal entries are not always repeated. Where two headings read alike, the source gives them in different places.
# Experiments:
# LmGDP-MP = LmGDP-MP (Leishmania mexicana, UniProt E9AW11); assay: biochemical; assay type: biochemical; settings: for Km: read-out: Km (µM) ± SD of LmGDP-MP
# Protocol: (§1) GDP-MP catalyzes the following reaction: Man‐1‐P+GTP→GDP−Mannose+Pyrophosphate The reaction media were buffered at pH optima and contained optimal concentrations of Man-1-P, GTP, GDP-MP and Mg^2+ determined for each purified GDP-MP (Fig. 2d), supplemented with DTT (1 mM). Inorganic pyrophosphatase, which hydrolyses the inorganic pyrophosphates generated by the GDP-MPs in inorganic phosphates, was added at 0.1 U/ml (Sigma-Aldrich). Inorganic pyrophosphatase was added in excess to the reaction medium in order to minimize the probability that the putative inhibitors of GDP-MPs interfere with this enzyme. The reaction was initiated by the addition of GDP-MP, and was stopped after adding 100 µl of revelation buffer containing malachite green (0.03% w/v), ammonium molybdate (0.2% w/v) and Triton X-100 (0.05% v/v) in HCl (0.7 M) for 5 min at the optimal temperature. The quantity of inorganic phosphate generated, representing GDP-MP activity, was determined by measuring OD650nm (Lab systems Multiskan MS). The molar extinction coefficient ε of the end product detected was determined by measuring OD650nm with a range of inorganic phosphate concentrations diluted in the revelation buffer and was calculated at 27207 M^−1 cm^−1 (Supplementary Fig. S2). The kinetic constants K m, V m and k cat were determined by non linear regression using GraphPad Prism 6.0.
# (§2) Enzyme activity was measured as described above in the presence of 100 µM of compounds and the percentage of inhibition was calculated in reference to untreated enzyme. As a control, compounds were evaluated in parallel in the same conditions on inorganic pyrophosphatase alone in order to discard false-positives. […] Furthermore, no effect was observed on the activity of the three purified GDP-MPs with 1% DMSO, corresponding to the maximal solvent concentration used at 100 µM of compound. Compounds presenting a minimum of 50% inhibition on a leishmanial GDP-MP were subsequently selected to determine their type of inhibition and their K i values. Inhibition data were fitted to competitive, non-competitive or uncompetitive models of enzyme inhibition by non linear least squares regression analysis using GraphPad Prism 6.0.
# [1] = test system: L. donovani axenic amastigotes; assay: Antileishmanial evaluation on axenic amastigotes (resazurin); assay type: cell-based; settings: Leishmania donovani, 72 h, 72 h treatment, 37 °C; read-out: IC50 (µM) ± SD L. donovani axenic amastigotes
# Protocol: (§3) The evaluations of activity on axenic and intramacrophage amastigotes were adapted from the protocols previously described. Briefly, for the evaluation on axenic amastigotes, two fold serial dilutions of the compounds from a maximal concentration of 100 µM were performed in 100 µl of complete medium (see above) in 96-well microplates. Axenic amastigotes were then added to each well at a density of 10^6/ml in a 200 µl final volume. After 72 h of treatment at 37 °C for L. donovani or at 32 °C for L. mexicana with 5% CO2, 20 µl of resazurin (450 µM) was added to each well and further incubated in the dark for 24 h at 37 °C for L. donovani or at 32 °C for L. mexicana with 5% CO2. In living cells, resazurin is reduced in resorufin and this conversion is monitored by measuring OD570nm (resorufin) and OD600nm (resazurin; Lab systems Multiskan MS). The activity of the compounds was expressed as IC50. Miltefosine was used as the reference drug.
# [2] = test system: L. mexicana axenic amastigotes; assay: as above; assay type: cell-based; settings: Leishmania mexicana, 72 h
# Protocol: as §3
# [3] = test system: L. donovani intramacrophage amastigotes in infected RAW.264.7 macrophages; assay: Antileishmanial evaluation on intramacrophage amastigotes, RAW264.7 host; assay type: cell-based; settings: for IC50: Leishmania donovani, RAW264.7, 48 h, 48 h treatment, read-out: IC50 (µM) ± SD L. donovani infected RAW.264.7 macrophages; for Selectivity index (CC50/IC50) L. donovani RAW264.7 macrophages: CC50 RAW264.7 / IC50 infected RAW264.7
# Protocol: (§4) Concerning the evaluation on intramacrophage amastigotes, RAW 264.7 macrophages (from ATCC) and bone marrow derived macrophages (BMDM) were plated in 96-well microplates at a density of 2 × 10^4 cells per well and incubated for 24 h at 37 °C with 5% CO2 for RAW264.7 cells or at 37 °C with 7% CO2 for BMDM. Axenic amastigotes were differenciated as described above, centrifuged at 2,000 g for 10 min, resuspended in DMEM complete medium, and added to each well to reach a 16:1 parasite to macrophage ratio. After 24 h of infection at 37 °C with 5% CO2 for RAW264.7 cells or at 37 °C with 7% CO2 for BMDM, extracellular parasites were removed, and DMEM complete medium (100 µl) containing two fold serial dilutions of the compounds from a maximal concentration of 100 µM was added to each well. After 48 h of treatment, the medium was removed and replaced by DirectPCR Lysis Reagent (100 µl; Euromedex) before 3 freeze-thaw cycles at room temperature, addition of 50 µg/ml proteinase K, and a final incubation at 55 °C overnight to allow cell lysis. 10 µl of each cell extract was then added to 40 µl of DirectPCR Lysis reagent containing Sybr Green I (0.05%; Invitrogen). DNA fluorescence was monitored using Mastercycler® realplex (Eppendorf). The activity of the compounds was expressed as IC50. Miltefosine was used as the reference drug.
# [4] = test system: L. donovani intramacrophage amastigotes in infected BMDM; assay: Antileishmanial evaluation on intramacrophage amastigotes, BMDM host; assay type: cell-based; settings: for Selectivity index (CC50/IC50) L. donovani BMDM: CC50 BMDM / IC50 infected BMDM; for IC50: Leishmania donovani, BMDM, 48 h treatment, read-out: IC50 (µM) ± SD L. donovani infected BMDM
# Protocol: as §4
# [5] = test system: L. mexicana intramacrophage amastigotes in infected BMDM; assay: microbe, parasite or virus in culture; assay type: cell-based; settings: for IC50: Leishmania mexicana, BMDM, 48 h, 48 h treatment, read-out: IC50 (µM) ± SD L. mexicana infected BMDM
# Protocol: as §4
# [6] = test system: L. mexicana intramacrophage amastigotes in infected RAW.264.7 macrophages; assay: microbe, parasite or virus in culture; assay type: cell-based; settings: for IC50: 48 h treatment, read-out: IC50 (µM) ± SD L. mexicana infected RAW.264.7 macrophages
# Protocol: as §4
# Cytotoxicity (resazurin) [7] = assay type: cell-based; settings: mouse, RAW264.7 macrophages; 48 h incubation; read-out: Cytotoxicity CC50 (µM) ± SD RAW264.7 macrophages
# Protocol: (§5) Cells were plated in 96-well microplates at a density of 2 × 10^4 cells per well. After an incubation of 24 h at 37 °C with 5% CO2 for RAW264.7 cells or at 37 °C with 7% CO2 for BMDM, the medium was removed in each well, and 100 µl of DMEM complete medium containing two fold serial dilutions of the compounds was added to each well. […] Cell viability was then monitored as described above.
# Cytotoxicity (resazurin) [8] = assay type: cell-based, Balb/c mice; settings: Balb/c, mouse, bone marrow derived macrophages (BMDM); 48 h incubation; read-out: Cytotoxicity CC50 (µM) ± SD BMDM
# Protocol: as §5
# [9] = test system: inorganic pyrophosphatase; assay: Control for false positives on inorganic pyrophosphatase alone; assay type: biochemical; settings: compound at 100 µM, same conditions as the GDP-MP assay
# Protocol: as §2
# [10] = test system: leishmanial GDP-MP (LdGDP-MP and/or LmGDP-MP); assay: Screen of the 100 compound library at 100 µM on purified leishmanial GDP-MPs; assay type: biochemical, Leishmania; settings: compound at 100 µM
# Protocol: as §1, §2
# hGDP-MP = target: T1, hGDP-MP (Homo sapiens, UniProt Q9Y5P6); assay: GDP-MP enzymatic assay (malachite green) on purified hGDP-MP; assay type: biochemical; settings: NTP at 100 µM
# T1 construct: made in house; host or cells: E. coli BL21(DE3), co-transformed with chaperone plasmid pG-KJE3
# Protocol: as §1, with “The reaction was initiated by the addition of GDP-MP, and was stopped after adding 100 µl of revelation buffer containing malachite green (0.03% w/v), ammonium molybdate (0.2% w/v) and Triton X-100 (0.05% v/v) in HCl (0.7 M) for 5 min at the optimal temperature.” left out
# Enzyme activity was measured as described above in the presence of 100 µM of compounds and the percentage of inhibition was calculated in reference to untreated enzyme. […]
# T. brucei GDP-MP = test system: T. brucei GDP-MP; design: method as in PMID 19919534; settings: cited from earlier work
# [11] = 72 h treatment, 32 °C, read-out: IC50 (µM) ± SD L. mexicana axenic amastigotes
# [12] = CC50 RAW264.7 / IC50 infected RAW264.7
# [13] = Leishmania mexicana, RAW264.7, 48 h
# LmGDP-MP, sequence (E9AW11 entry or part of it): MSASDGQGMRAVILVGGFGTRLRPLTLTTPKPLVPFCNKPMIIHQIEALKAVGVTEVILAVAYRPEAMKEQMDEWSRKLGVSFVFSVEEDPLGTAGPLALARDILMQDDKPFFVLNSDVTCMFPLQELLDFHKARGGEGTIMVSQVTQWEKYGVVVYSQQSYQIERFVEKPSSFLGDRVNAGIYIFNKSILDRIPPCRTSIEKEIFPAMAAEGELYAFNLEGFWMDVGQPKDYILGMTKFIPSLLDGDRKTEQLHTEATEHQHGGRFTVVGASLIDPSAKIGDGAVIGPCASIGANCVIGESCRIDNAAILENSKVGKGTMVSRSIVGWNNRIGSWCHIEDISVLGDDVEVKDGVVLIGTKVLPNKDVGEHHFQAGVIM
# T1 sequence (Q9Y5P6 whole entry): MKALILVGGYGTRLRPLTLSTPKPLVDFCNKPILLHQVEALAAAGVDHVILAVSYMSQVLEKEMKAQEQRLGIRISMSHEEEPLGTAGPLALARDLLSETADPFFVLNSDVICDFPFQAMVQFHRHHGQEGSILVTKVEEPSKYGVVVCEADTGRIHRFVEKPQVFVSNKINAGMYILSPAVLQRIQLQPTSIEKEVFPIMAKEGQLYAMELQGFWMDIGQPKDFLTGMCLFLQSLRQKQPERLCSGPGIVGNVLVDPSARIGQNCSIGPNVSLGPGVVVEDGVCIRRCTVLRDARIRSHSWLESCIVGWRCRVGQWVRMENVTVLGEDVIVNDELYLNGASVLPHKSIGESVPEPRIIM
Structure (SMILES),Ki (LmGDP-MP),IC50 [1],"IC50 [2, 11]",IC50 [3],Selectivity index (CC50/IC50) L. donovani BMDM [4],IC50 [4],Selectivity index (CC50/IC50) L. mexicana BMDM ([5]; CC50 BMDM / IC50 infected BMDM),IC50 [5],"Selectivity index (CC50/IC50) L. mexicana RAW264.7 macrophages [6, 12]","IC50 [6, 13]",CC50 at 48 h (Cytotoxicity (resazurin) [7]),CC50 at 48 h (Cytotoxicity (resazurin) [8]),inhibition of inorganic pyrophosphatase [9],enzyme inhibition on a leishmanial GDP-MP [10],further results
O=C(NCc1ccccc1)c1ccc2nc(-c3ccccc3)c(-c3ccccc3)nc2c1 [compound 46],25.6 ± 3.46 µM,> 100 µM,7.69 ± 0.56 µM,> 100 µM,1.0,12.5 ± 0.93 µM,0.8,15.7 ± 3.48 µM,>8.5,11.7 ± 1.13 µM,> 100 µM,13.1 ± 1.67 µM,< 5%,above 50%,–
O=c1[nH]cnc2c1ncn2[C@@H]1O[C@H](COP(=O)(O)OP(=O)(O)OP(=O)(O)O)[C@@H](O)[C@H]1O [ITP],–,–,–,–,–,–,–,–,–,–,–,–,–,–,LmGDP-MP activity with substrate analogue compared to GTP (LmGDP-MP; NTP at 100 µM): 22–24%; hGDP-MP activity with substrate analogue compared to GTP (hGDP-MP): 22–24% and 24%
Clc1ccc2nc(COCCn3cc(-c4ccc(-c5ccccc5)cc4)nn3)ccc2c1 [compound 92],16 ± 3.51 µM,> 100 µM,43.1 ± 3.42 µM,41.6 ± 14 µM,0.9,82.5 ± 7.61 µM,1.0,79.3 ± 9.76 µM,>12.1,< 10 µM,> 100 µM,77.5 ± 5.34 µM,< 5%,above 50%,Selectivity index (CC50/IC50) L. donovani RAW264.7 macrophages [3]: >2.4; IC50 [6]: 8.25 ± 1.07 µM
Nc1nc2c(ncn2C2OC(Cn3cc(-c4ccc(-c5ccccc5)cc4)nn3)C(O)C2O)c(=O)[nH]1 (stereo not shown) [compound 83],25.4 ± 4.23 µM,> 100 µM,30.6 ± 3.29 µM,51.9 ± 7.49 µM,0.9,27.1 ± 2.04 µM,0.9,25.9 ± 5.37 µM,>2.2,45.4 ± 6.21 µM,> 100 µM,23.8 ± 1.98 µM,< 5%,above 50%,Selectivity index (CC50/IC50) L. donovani RAW264.7 macrophages [3]: >1.9
"CCCCCCCCCCCCCCCCOP(=O)([O-])OCC[N+](C)(C)C [Miltefosine, reference compound]",–,2.08 ± 0.24 µM,–,1.83 ± 0.22 µM,>30.1,0.83 ± 0.12 µM,–,51.4 ± 5.34 µM,–,52.6 ± 4.98 µM,> 25 µM,> 25 µM,–,–,"IC50 ([2]; read-out: IC50 (µM) ± SD L. mexicana axenic amastigotes, 72 h treatment, 32 °C): 23.7 ± 2.81 µM; Selectivity index (CC50/IC50) L. mexicana BMDM [5]: >0.5; Selectivity index (CC50/IC50) L. mexicana RAW264.7 macrophages [6]: >0.5"
Nc1nc2c(ncn2[C@@H]2O[C@H](COP(=O)(O)OP(=O)(O)OP(=O)(O)O)[C@@H](O)[C@H]2O)c(=O)[nH]1 [GTP],–,–,–,–,–,–,–,–,–,–,–,–,–,–,Km (LmGDP-MP; other substrate held constant at 80 µM): 7.67 ± 2.28 µM
Nc1ncnc2c1ncn2[C@@H]1O[C@H](COP(=O)(O)OP(=O)(O)OP(=O)(O)O)[C@@H](O)[C@H]1O [ATP],–,–,–,–,–,–,–,–,–,–,–,–,–,–,Km (T. brucei GDP-MP): 290 µM
"O=P(O)(O)OC1O[C@H](CO)[C@@H](O)[C@H](O)[C@@H]1O (stereo partly shown) [Man-1-P, mannose-1-phosphate]",–,–,–,–,–,–,–,–,–,–,–,–,–,–,Km (LmGDP-MP): 11.6 ± 1.76 µM
